In general, pIC50 refers to the negative decadic logarithm of the IC50, by convention in mol/L. Broadly, the melting point is the temperature of the solid-liquid transition.

pIC50: −log10 of the molar value. Read-outs that look alike come from different tables or passages of the source.

Series [1] has as its target T1, PPARγ ligand binding domain (LBD) (amino acids 195-475) (Homo sapiens, UniProt P37231).
T1 construct: polyHis; made in house; host or cells: Escherichia coli
T1 sequence (P37231 195-475 isoform P37231-2): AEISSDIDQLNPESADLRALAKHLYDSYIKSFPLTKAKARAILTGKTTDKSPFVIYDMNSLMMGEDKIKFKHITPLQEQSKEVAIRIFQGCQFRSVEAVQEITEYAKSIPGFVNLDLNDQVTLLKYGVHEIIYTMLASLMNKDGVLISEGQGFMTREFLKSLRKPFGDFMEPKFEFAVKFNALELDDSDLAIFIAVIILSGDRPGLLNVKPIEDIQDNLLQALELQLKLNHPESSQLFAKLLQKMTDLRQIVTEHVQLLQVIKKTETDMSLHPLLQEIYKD
The series is described as follows: PPAR-γ binding assay (spin plate / gel filtration binding assay, displacement of [3H]BRL 49653). On the procedure:
The activity of a given compound in binding to PPAR-γ can be assayed routinely according to procedures known in the art. […] The PPAR-γ binding assay described below was used to determine the PPAR-γ binding activities of the compounds of the invention.
Compounds were tested for their ability to bind to PPARγ using a spin plate assay (gel filtration binding assay). […] Each compound was tested in triplicate. […] The plates were centrifuged (Beckman GS-6R) at 2500 rpm for 5 minutes, 170 μl Scitisafe® scintillation fluid (Fisher) was added to each well, the plates were sealed, and after 1 hour, were counted in a Wallac MicroBeta counter. The amount of nonspecific binding, as assessed by control wells containing 10 μM of the corresponding unlabeled ligand, was subtracted from each data point. For each compound tested, the data was averaged and plots of ligand concentration versus CPM of radioligand bound were constructed. Apparent IC50 values were estimated from nonlinear least-squares fit of the data assuming simple competitive binding.
On the technique in general: SEC sorts molecules by how far they enter the pores of the column.

Setting [2] is: read-out: IC50 range in the PPAR-γ Binding Assay.

`COc1cccc(Cn2c(C(=O)O)c(-c3ccc(C(C)(C)C)cc3)c3cc(NC(=O)C4CCCC4)ccc32)c1` [Example 269] registered a melting point of 154 to 156 °C. In addition, the negative-log IC50 (pIC50) in series [1] (setting [2]) is 5.00 to 8.00.

Regarding `COc1cccc(Cn2c(C(=O)O)c3c4cc(ccc42)OCCCCCCOc2cccc-3c2)c1` [Example 300], the melting point lay within 79 to 80 °C. The pIC50 in series [1] (setting [2]) is 5.00 to 8.00. `O=C(O)c1c(-c2cccc(OCC3CC3)c2)c2ccccc2n1Cc1ccc(F)cc1` [Example 339, 3-[3-(Cyclopropylmethoxy)phenyl]-1-[(4-fluorophenyl)methyl]indole-2-carboxylic Acid] displayed a melting point of 200 to 202 °C. Further, the pIC50 in series [1] (setting [2]) is 8.00 to 10.00. `COc1cccc(Cn2c(C(=O)O)c(-c3ccc(-c4ccco4)cc3)c3ccccc32)c1` [Example 240] showed a melting point of 190 to 192 °C. In addition, the pIC50 in series [1] (setting [2]) is 8.00 to 10.00. Take `COc1ccc(-c2c(C(=O)O)n(CS(=O)(=O)c3ccccc3)c3ccccc23)cc1` [Example 282]: the melting point lay in the range of 166 to 168 °C. Also, the pIC50 in series [1] (setting [2]) is 5.00 to 8.00. As to `COc1ccc(-c2c(C(=O)NS(=O)(=O)c3ccc(C)cc3)n(Cc3cccc(C(F)(F)F)c3)c3ccccc23)cc1` [Example 358], the melting point turned out to be 162 °C. The pIC50 in series [1] (setting [2]) was 5.00 to 8.00. The corresponding values for `O=C(O)c1c(-c2ccco2)c2ccccc2n1Cc1cccc(C(F)(F)F)c1` [Example 237] are 172 to 173 °C and 8.00 to 10.00. `COc1cccc(Cn2c(C(=O)O)c(-c3ccc(C(=O)NC4CCCCC4)cc3)c3ccccc32)c1` [Example 325] came in with a melting point of 245 °C. Besides, the pIC50 in series [1] (setting [2]) was 5.00 to 8.00.

`COc1ccc(C(=O)c2c(C(=O)O)n(Cc3cccc(C(F)(F)F)c3)c3ccccc23)cc1` [Example 242] returned a melting point of 215 to 216 °C. Besides, the negative logarithm of the IC50 (pIC50) in series [1] was 5.00 to 8.00. `CC(=O)c1ccc(-c2c(C(=O)O)n(Cc3cccc(C(F)(F)F)c3)c3ccccc23)s1` [Example 236]: the melting point lay within 212 to 214 °C. The pIC50 in series [1] (setting [2]) is 8.00 to 10.00.

With `COc1cccc(Cn2c(C(=O)O)c(CC3CC3)c3ccccc32)c1` [Example 265], the melting point is 165 to 167 °C. Besides, the negative-log IC50 (pIC50) in series [1] (setting [2]) was 8.00 to 10.00. The corresponding values for `COc1cccc(Cn2c(C(=O)O)c(-c3ccc(C(C)(C)C)cc3)c3cc(NC(=O)NCC4CC4)ccc32)c1` [Example 270] are 141 to 142 °C and 5.00 to 8.00. The compound `O=C(O)c1c(CC2CC2)c2ccccc2n1Cc1cccc(C(F)(F)F)c1` [Example 264] yielded a melting point of 174 to 175 °C. In series [1] (setting [2]), the negative logarithm of the IC50 (pIC50) was 8.00 to 10.00. With `COc1cccc(Cn2c(C(=O)O)c(-c3cccc(N(C)C(=O)C4CC4)c3)c3ccccc32)c1` [Example 295], the melting point amounted to 200 °C. Moreover, the negative logarithm of the IC50 (pIC50) in series [1] (setting [2]) is 5.00 to 8.00. Compound `COc1cccc(Cn2c(C(=O)O)c(-c3ccc(C(C)(C)C)cc3)c3cc(N(C)C(=O)C4CC4)ccc32)c1` [Example 274] came in with a melting point of 219 to 222 °C. For the same compound, the pIC50 in series [1] (setting [2]) was 5.00 to 8.00. `COc1cccc(Cn2c(C(=O)O)c(-c3ncc(C(C)=O)s3)c3ccccc32)c1` [Example 343]: the melting point is 218 °C (dec.). For the same compound, the pIC50 in series [1] (setting [2]) is 8.00 to 10.00. On to `CC(=O)c1cccc(-c2c(C(=O)O)n(Cc3cccc(OCC4CC4)c3)c3ccccc23)c1` [Example 290], for which the melting point turned out to be 103 °C. In addition, the negative logarithm of the IC50 (pIC50) in series [1] (setting [2]) is 8.00 to 10.00. Consider `COc1cccc(Cn2c(C(=O)O)c(-c3ccc(C(=O)NC4CCCC4)cc3)c3ccccc32)c1` [Example 324], for which the melting point was 230 °C. The pIC50 in series [1] (setting [2]) is 5.00 to 8.00. As to `COc1ccc(-c2c(C(=O)O)n(Cc3cccc(OC)c3)c3c(NC(=O)C4CC4)cccc23)cc1` [Example 302], the melting point was 210 °C (dec.). Moreover, the pIC50 in series [1] (setting [2]) is 5.00 to 8.00. Take `COc1cccc(Cn2c(C(=O)O)c(-c3ccc(C(C)(C)C)cc3)c3cc(NC(=O)C4CC4)ccc32)c1` [Example 268]: the melting point was in the range of 194 to 196 °C. Moreover, in series [1] (setting [2]), the negative logarithm of the IC50 (pIC50) is 8.00 to 10.00. The compound `CCOc1ccc(-c2c(C(=O)O)n(Cc3ccc(F)cc3)c3c(NC(=O)C4CC4)cccc23)cc1` [Example 285] registered a melting point of 250 °C. In the case of `CCOc1ccc(-c2c(C(=O)O)n(Cc3ccc(F)cc3)c3c(N(C)C(=O)C4CC4)cccc23)cc1` [Example 286], the melting point was found to be 128 °C. Also, the negative-log IC50 (pIC50) in series [1] (setting [2]) is 5.00 to 8.00. `COc1cccc(Cn2c(C(=O)O)c(-c3ccc(C(C)(C)C)cc3)c3cccc(NC(=O)C4CC4)c32)c1` [Example 292] gave a melting point of 151 °C. For the same compound, the negative-log IC50 (pIC50) in series [1] (setting [2]) was 5.00 to 8.00. Taken in the same sequence, the figures for `O=C(O)c1c(C=C2CC2)c2ccccc2n1Cc1cccc(C(F)(F)F)c1` [Example 231, 3-(Cyclopropylidenemethyl)-1-[3-(trifluoromethyl)benzyl]-1H-indole-2-carboxylic acid] were 148 to 150 °C and 8.00 to 10.00.

Turning to `COc1ccc(Cc2c(C(=O)O)n(Cc3cccc(OCC4CC4)c3)c3ccccc23)cc1` [Example 297], the melting point was in the range of 168 to 170 °C. Also, in series [1] (setting [2]), the negative-log IC50 (pIC50) was 8.00 to 10.00.

Compound `COc1cccc(Cn2c(C(=O)O)c(-c3ccc(C(C)(C)C)cc3)c3c(OCC4CC4)cccc32)c1` [Example 296] came in with a melting point of 162 °C. The negative-log IC50 (pIC50) in series [1] (setting [2]) was 5.00 to 8.00. Take `CC(=O)Nc1cccc(-c2c(C(=O)O)n(Cc3cccc(OCC4CC4)c3)c3ccccc23)c1` [Example 298]: the melting point lay in the range of 122 to 123 °C. The negative logarithm of the IC50 (pIC50) in series [1] (setting [2]) is 5.00 to 8.00. For the compound `O=C(O)c1c(/C=C/c2ccccc2)c2ccccc2n1Cc1cccc(C(F)(F)F)c1` [Example 243], the melting point fell in the range of 183 to 185 °C. In addition, the pIC50 in series [1] (setting [2]) is 8.00 to 10.00. The corresponding values for `COc1cccc(Cn2c(C(=O)O)c(-c3cccc(OCC4CC4)c3)c3ccccc32)c1` [Example 345] are 147 to 148 °C and 8.00 to 10.00.

As to `COc1ccc(C(=O)c2c(C(=O)O)n(Cc3cccc(OC)c3)c3ccccc23)cc1` [Example 241], the melting point was 68 to 69 °C. In addition, the negative-log IC50 (pIC50) in series [1] is 5.00 to 8.00.

Compound `COc1ccc(-c2c(C(=O)NS(=O)(=O)c3ccc(Cl)cc3)n(Cc3cccc(C(F)(F)F)c3)c3ccccc23)cc1` [Example 359] had a melting point of 166 °C. Moreover, the pIC50 in series [1] (setting [2]) was 8.00 to 10.00. Taken in the same sequence, the figures for `CCOc1ccc(-c2c(C(=O)O)n(Cc3ccc(F)cc3)c3ccc(COCC4CC4)cc23)cc1` [Example 347, 5-[(Cyclopropylmethoxy)methyl]-3-(4-ethoxyphenyl)-1-(4-fluorobenzyl)-1H-indole-2-carboxylic acid] were 171 to 173 °C and 8.00 to 10.00. Taken in the same sequence, the figures for `O=C(O)c1c(-c2ccc(OCC3CC3)cc2)c2ccccc2n1Cc1cccc(OC(F)(F)F)c1` [Example 346] were 204 to 205 °C and 8.00 to 10.00. As for `CC(C)(C)c1ccc(-c2c(C(=O)O)n(Cc3cccc(OC4CCCC4)c3)c3ccccc23)cc1` [Example 289], the melting point was found to be 159 °C. The pIC50 in series [1] (setting [2]) is 8.00 to 10.00. With `CC(C)(C)c1ccc(-c2c(C(=O)O)n(Cc3cccc(OCC4CC4)c3)c3ccccc23)cc1` [Example 288], the melting point worked out at 120 °C. Further, the pIC50 in series [1] (setting [2]) is 8.00 to 10.00. For the compound `CCCCOc1ccc2c(c1)c(-c1ccc(OCC3CC3)cc1)c(C(=O)O)n2Cc1cccc(OC)c1` [Example 332], the pIC50 in series [1] (setting [2]) was 8.00 to 10.00. `COc1cccc(Cn2c(C(=O)O)c(-c3ccc(OCC4CC4)cc3)c3cc(OCc4ccccc4)ccc32)c1` [Example 229, 5-(Benzyloxy)-3-[4-(cyclopropylmethoxy)phenyl]-1-(3-methoxybenzyl)-1H-indole-2-carboxylic acid]: the melting point is 185 to 187 °C. With `COc1cccc(COc2ccc3c(c2)c(-c2ccc(OCC4CC4)cc2)c(C(=O)O)n3Cc2cccc(OC)c2)c1` [Example 315], the pIC50 in series [1] (setting [2]) was 8.00 to 10.00. On to `COc1cccc(Cn2c(C(=O)O)c(-c3ccc(C(C)(C)C)cc3)c3cc(C(=O)C4CC4)ccc32)c1` [Example 254], for which the pIC50 in series [1] (setting [2]) was 5.00 to 8.00. Same read-out and setting: then `O=C(O)c1c(-c2ccc(SC3CC3)cc2)c2ccccc2n1Cc1cccc(C(F)(F)F)c1` [Example 262], with 8.00 to 10.00; and `O=C(O)c1c(-c2nc3cc(C(F)(F)F)ccc3s2)c2ccccc2n1Cc1cccc(C(F)(F)F)c1` [Example 257], with 8.00 to 10.00; and `O=C(O)c1c(-c2cc3ccccc3s2)c2ccccc2n1Cc1cccc(C(F)(F)F)c1` [Example 232, 3-(Benzothien-2-yl)-1-[3-(trifluoromethyl)benzyl)-indole-2-carboxylic acid], with 8.00 to 10.00. Consider `COc1cccc(-c2c(C(=O)O)n(Cc3cccc(OCC4CC4)c3)c3ccccc23)c1` [Example 283], for which the pIC50 in series [1] (setting [2]) is 8.00 to 10.00. As for `COc1cccc(Cn2c(C(=O)O)c(-c3ncc(C4CC4)s3)c3ccccc32)c1` [Example 344], the negative-log IC50 (pIC50) in series [1] (setting [2]) is 8.00 to 10.00. On the same count and under the same terms, then `O=C(O)c1c(C2=NC3(CCCC3)CO2)c2ccccc2n1Cc1cccc(C(F)(F)F)c1` [Example 239], with 5.00 to 8.00.

Source of the values: US6787651B2, “Substituted indoles, pharmaceutical compounds containing such indoles and their use as PPAR-γ binding agents” (SmithKline Beecham Corporation, priority 2000, dated 2004).
